# Source: patent US20230398130A1, “METHODS AND COMPOSITIONS FOR DIFFERENTIATING STEM CELLS” (Massachusetts Institute of Technology, priority 2020, published 2023)
# Tests used:
# [1] = test system: ISC-enriched organoids; test: Primary screen, 384-well 2.5-D organoid differentiation (ENR+CD, 6 days, Target Selective Inhibitor Library, vs whole-plate median): ATP (CellTiter-Glo 3D, CTG); conditions: for Dose.FC.CTG (log 2 fold change): vs plate median; for Dose.FC.CTG: FC vs plate median; for SSMD.CTG: strictly standardized mean difference
# [2] = test system: ISC-enriched organoids; test: Primary screen, 384-well 2.5-D organoid differentiation (ENR+CD, 6 days): carbachol-induced lysozyme secretion (LYZ.S); format: cell-based, murine; conditions: for Dose.FC.LYZ.S (log 2 fold change): vs plate median; for Dose.FC.LYZ.S: FC vs plate median; for Z.LYZ.S: standard z score; for SSMD.LYZ.S: strictly standardized mean difference
# From the text: (§1) High-throughput screening.
# [3] = test system: ISC-enriched organoids; test: Primary screen, 384-well 2.5-D organoid differentiation (ENR+CD, 6 days): basal lysozyme secretion (LYZ.NS); format: cell-based, murine; conditions: for Dose.FC.LYZ.NS (log 2 fold change): vs plate median; for Dose.FC.LYZ.NS: FC vs plate median; for Z.LYZ.NS: standard z score of FC; for SSMD.LYZ.NS: strictly standardized mean difference
# From the text: as §1
# [4] = Dose 0.08 uM, standard z score of FC
# [5] = Dose 0.40 uM, standard z score of FC
# [6] = Dose 2.00 uM, standard z score of FC
# [7] = Dose 10.00 uM, standard z score of FC
# [8] = primary screen, 1st of the 4 dose lines of the treatment (dose not given)
# [9] = primary screen, 2nd of the 4 dose lines of the treatment (dose not given)
# [10] = primary screen, 3rd of the 4 dose lines of the treatment (dose not given)
# [11] = primary screen, 4th of the 4 dose lines of the treatment (dose not given)
structure (smiles),measurement,setting,value
COc1cc(OC)c(/C=C/S(=O)(=O)Cc2ccc(OC)c(NCC(=O)O)c2)c(OC)c1 [Rigosertib (ON-01910)],Z.CTG (standard z score),"[1]; Dose 0.08 uM, primary screen",−2.162
same,Dose.FC.CTG (log 2 fold change),"[1]; Dose 0.08 uM, primary screen",−0.905
same,Z.CTG (standard z score),"[1]; Dose 0.40 uM, primary screen",−3.069
same,Dose.FC.CTG (log 2 fold change),"[1]; Dose 0.40 uM, primary screen",−1.285
same,Z.CTG (standard z score),"[1]; Dose 2.00 uM, primary screen",−3.984
same,Dose.FC.CTG (log 2 fold change),"[1]; Dose 2.00 uM, primary screen",−1.668
same,Z.CTG (standard z score),"[1]; Dose 10.00 uM, primary screen",−2.022
same,Dose.FC.CTG (log 2 fold change),"[1]; Dose 10.00 uM, primary screen",−0.847
same,Dose.FC.LYZ.S (log 2 fold change),"[2]; Dose 0.08 uM, primary screen",−0.309
same,Dose.FC.LYZ.S (log 2 fold change),"[2]; Dose 0.40 uM, primary screen",−0.355
same,Dose.FC.LYZ.S (log 2 fold change),"[2]; Dose 2.00 uM, primary screen",−0.340
same,Dose.FC.LYZ.S (log 2 fold change),"[2]; Dose 10.00 uM, primary screen",−0.330
same,Z.LYZ.NS (standard z score),"[3]; Dose 0.08 uM, primary screen",−2.105
same,Dose.FC.LYZ.NS (log 2 fold change),"[3]; Dose 0.08 uM, primary screen",−0.242
same,Z.LYZ.NS (standard z score),"[3]; Dose 0.40 uM, primary screen",−1.831
same,Dose.FC.LYZ.NS (log 2 fold change),"[3]; Dose 0.40 uM, primary screen",−0.210
same,Z.LYZ.NS (standard z score),"[3]; Dose 2.00 uM, primary screen",−2.306
same,Dose.FC.LYZ.NS (log 2 fold change),"[3]; Dose 2.00 uM, primary screen",−0.265
same,Z.LYZ.NS (standard z score),"[3]; Dose 10.00 uM, primary screen",−2.107
same,Dose.FC.LYZ.NS (log 2 fold change),"[3]; Dose 10.00 uM, primary screen",−0.242
NC(=O)C1CCCc2c1[nH]c1ccc(Cl)cc21 (stereo not drawn) [EX 527 (Selisistat)],Dose.FC.CTG,"[1]; Dose 0.08 uM, ENR+CD, 6 days",0.240 log 2 fold change
same,Z.CTG,[1]; [4],0.574
same,Dose.FC.CTG,"[1]; Dose 0.40 uM, ENR+CD, 6 days",0.174 log 2 fold change
same,Z.CTG,[1]; [5],0.415
same,Dose.FC.CTG,"[1]; Dose 2.00 uM, ENR+CD, 6 days",0.341 log 2 fold change
same,Z.CTG,[1]; [6],0.814
same,Dose.FC.CTG,"[1]; Dose 10.00 uM, ENR+CD, 6 days",0.320 log 2 fold change
same,Z.CTG,[1]; [7],0.766
same,Dose.FC.LYZ.S,"[2]; Dose 0.08 uM, ENR+CD, 6 days",0.062 log 2 fold change
same,Dose.FC.LYZ.S,"[2]; Dose 0.40 uM, ENR+CD, 6 days",0.047 log 2 fold change
same,Dose.FC.LYZ.S,"[2]; Dose 2.00 uM, ENR+CD, 6 days",−0.051 log 2 fold change
same,Dose.FC.LYZ.S,"[2]; Dose 10.00 uM, ENR+CD, 6 days",−0.011 log 2 fold change
same,Dose.FC.LYZ.NS,"[3]; Dose 0.08 uM, ENR+CD, 6 days",0.100 log 2 fold change
same,Z.LYZ.NS,[3]; Dose 0.08 uM,0.871
same,Dose.FC.LYZ.NS,"[3]; Dose 0.40 uM, ENR+CD, 6 days",0.059 log 2 fold change
same,Z.LYZ.NS,[3]; Dose 0.40 uM,0.512
same,Dose.FC.LYZ.NS,"[3]; Dose 2.00 uM, ENR+CD, 6 days",0.030 log 2 fold change
same,Z.LYZ.NS,[3]; Dose 2.00 uM,0.261
same,Dose.FC.LYZ.NS,"[3]; Dose 10.00 uM, ENR+CD, 6 days",0.057 log 2 fold change
same,Z.LYZ.NS,[3]; Dose 10.00 uM,0.494
CCc1c2c(nc3ccc(OC(=O)N4CCC(N5CCCCC5)CC4)cc13)-c1cc3c(c(=O)n1C2)COC(=O)[C@]3(O)CC [Irinotecan],Z.CTG,"[1]; Dose 0.08 uM, primary screen, standard z score",−0.265
same,Z.CTG,"[1]; Dose 0.40 uM, primary screen, standard z score",−1.872
same,Z.CTG,"[1]; Dose 2.00 uM, primary screen, standard z score",−1.875
same,Z.CTG,"[1]; Dose 10.00 uM, primary screen, standard z score",−2.951
same,SSMD.CTG,[1]; [8],−0.378
same,SSMD.CTG,[1]; [9],−1.558
same,SSMD.CTG,[1]; [10],−1.491
same,SSMD.CTG,[1]; [11],−2.716
same,Z.LYZ.S,[2]; [8],−0.023
same,Z.LYZ.S,[2]; [9],−0.939
same,Z.LYZ.S,[2]; [10],−1.596
same,Z.LYZ.S,[2]; [11],−1.624
same,SSMD.LYZ.S,[2]; [8],−0.018
same,SSMD.LYZ.S,[2]; [9],−0.721
same,SSMD.LYZ.S,[2]; [10],−1.400
same,SSMD.LYZ.S,[2]; [11],−1.217
same,SSMD.LYZ.NS,[3]; [8],−0.217
same,SSMD.LYZ.NS,[3]; [9],−0.556
same,SSMD.LYZ.NS,[3]; [10],−1.415
same,SSMD.LYZ.NS,[3]; [11],−1.102
COc1ccc(CNCc2cccc3ccccc23)cc1.Cl [ML133 HCl],Dose.FC.CTG,"[1]; Dose 0.08 uM, primary screen",−0.009 log 2 fold change
same,Z.CTG,[1]; [4],−0.023
same,Dose.FC.CTG,"[1]; Dose 0.40 uM, primary screen",−0.151 log 2 fold change
same,Z.CTG,[1]; [5],−0.360
same,Dose.FC.CTG,"[1]; Dose 2.00 uM, primary screen",−0.247 log 2 fold change
same,Z.CTG,[1]; [6],−0.591
same,Dose.FC.CTG,"[1]; Dose 10.00 uM, primary screen",−0.040 log 2 fold change
same,Z.CTG,[1]; [7],−0.096
same,SSMD.CTG,[1]; [8],−0.026
same,SSMD.CTG,[1]; [9],−0.437
same,SSMD.CTG,[1]; [10],−0.560
same,SSMD.CTG,[1]; [11],−0.133
same,Dose.FC.LYZ.S,"[2]; Dose 0.08 uM, primary screen",0.062 log 2 fold change
same,Dose.FC.LYZ.S,"[2]; Dose 0.40 uM, primary screen",−0.018 log 2 fold change
same,Dose.FC.LYZ.S,"[2]; Dose 2.00 uM, primary screen",0.087 log 2 fold change
same,Dose.FC.LYZ.S,"[2]; Dose 10.00 uM, primary screen",−0.014 log 2 fold change
same,Z.LYZ.S,[2]; [8],0.404
same,Z.LYZ.S,[2]; [9],−0.118
same,Z.LYZ.S,[2]; [10],0.565
same,Z.LYZ.S,[2]; [11],−0.089
same,SSMD.LYZ.S,[2]; [8],0.324
same,SSMD.LYZ.S,[2]; [9],−0.129
same,SSMD.LYZ.S,[2]; [10],0.368
same,SSMD.LYZ.S,[2]; [11],−0.088
same,Dose.FC.LYZ.NS,"[3]; Dose 0.08 uM, primary screen",0.030 log 2 fold change
same,Z.LYZ.NS,[3]; Dose 0.08 uM,0.261
same,Dose.FC.LYZ.NS,"[3]; Dose 0.40 uM, primary screen",−0.013 log 2 fold change
same,Z.LYZ.NS,[3]; Dose 0.40 uM,−0.116
same,Dose.FC.LYZ.NS,"[3]; Dose 2.00 uM, primary screen",0.073 log 2 fold change
same,Z.LYZ.NS,[3]; Dose 2.00 uM,0.633
same,Dose.FC.LYZ.NS,"[3]; Dose 10.00 uM, primary screen",−0.018 log 2 fold change
same,Z.LYZ.NS,[3]; Dose 10.00 uM,−0.155
same,SSMD.LYZ.NS,[3]; [8],0.282
same,SSMD.LYZ.NS,[3]; [9],−0.131
same,SSMD.LYZ.NS,[3]; [10],0.740
same,SSMD.LYZ.NS,[3]; [11],−0.152
